One series has as its system T24. The series is described as follows: MTT assay for cell viability, T24. In kind it is cell-based. The note with it: Homo sapiens, T-24, 48 h, mean from 3 independent experiments. How it is done:
(§1) Cells with RAS mutations were treated with compounds 1 and C-1 for 48 h and cell viability was evaluated by MTT assay. The results shown are mean from 3 independent experiments.
(§2) HCT-116 were authenticated by Eurofin genomics and cultured in DMEM (10% heat inactivated FBS). sNF96.2 were purchased from ATCC and cultured in DMEM (10% heat inactivated FBS+1 mM Na Pyruvate). ASPC-1 cells were purchased from DSMZ and cultured in RPMI-1640 (10% heat inactivated FBS). NCI-H358 were purchased from ATCC and cultured in RPMI-1640 (10% heat inactivated FBS). T24 and HCT-116 cells were cultured in Mccoy's 5A medium (10% heat inactivated FBS). HT-1080 cells were cultured in EMEM (10% heat inactivated FBS+1 mM Na Pyruvate).
(§3) Cancer cells were seeded in 96 well plates (5×10^3 cells/well) in 80 μl in growth medium and cultured for 1 day in the incubator. Next day, 20 μl of compounds containing growth medium was added to each well and the cells were cultured for 48 h. After incubation with compounds, 10 μl of MTT solution was added to the wells and incubated for 2-4 hours. After incubation with MTT, solubilization buffer was added and incubated over night. MTT was measured at O.D. 570 nm with a plate reader (Tecan). IC50 calculations by non-linear regression were conducted with GraphPad Prism 9.

The next series deals with HT-1080. The series is described as follows: MTT assay for cell viability, HT-1080. As to conditions: Homo sapiens, 48 h, mean from 3 independent experiments. In kind it is cell-based. The protocol:
as §1, §2, §3

A further series has as its target T1, HRAS G12V (Homo sapiens, UniProt P01112, G12V).
T1 construct: expressed in transfected cells; host or cells: HeLa
The series is described as follows: NanoBiT assay for RAS GTP-loading (LgBit-HRAS G12V / SmBit-CRAF-RBD) in HeLa cells. The format is cell-based. The protocol: (§4) NanoBiT assay for the RAS GTP-loading was performed in HeLa cells transfected with LgBit-K, N and HRAS G12V and SmBit-CRAF-RBD. Cells were treated with compounds 1 or C-1 for 2 h in serum-free DMEM (Dulbecco's modified Eagle's Medium). After incubation, the substrate for NanoLuc was added, and the luminescence was measured using a multiplate reader. Data were normalized to cells transfected with the indicated mutant and exposed to DMSO for 2 h. DMSO-treated cells were set as 1. The results shown are mean from 3 independent experiments.
(§5) HeLa cells were harvested with 0.05% Trypsin/0.02% EDTA in PBS and seeded in 6 well or 12 well cell culture plates at the concentration of 5×10^4 cells in complete DMEM (2 ml for 6 well plate and 1 ml for 12 well plate). After 1 day from seeding, the DNA were transfected with Flag tagged Ras or NanoBiT plasmid using PEI/PBS solution.
(§6) The plasmids were transfected to HeLa cells and the cells were harvested after 1 day of transfection. The cells were seeded to 96 well white plate. Next day, the medium was changed to serum free DMEM for 2 h with compounds. After incubation, Nano Glo assay was performed. The luminescence was measured using Tecan SPARKS (Tecan). IC50 calculations by non-linear regression were conducted with GraphPad Prism 9.

Another series is described as follows: oral PK. In kind it is in vivo. The note with it: for AUC(0-inf) / Cmax / average free concentration at 24 h / half-life: in vivo; for average free concentration at 24 h: read-out: C average (nM) free; for half-life: read-out: T½ (converted). From the text:
(§7) After administration, a certain amount of drug is in the blood or plasma. Of the total amount in the blood or plasma, some is bound to proteins (or other species in the blood or plasma). Only unbound drug is available e.g., for drug-target interactions. Therefore, the higher the unbound fraction that is available in the blood or plasma, the more is available for binding the drug to a target. The less unbound drug is available in the blood or plasma e.g., because it is involved in competitive binding to, for example, albumin, the less is available for desired drug-target interaction. The protocol for determining the unbound fraction and pharmacokinetics is routine practice and known to the skilled person.

The subject of another series is H358. The series is described as follows: MTT assay for cell viability, H358. The format is cell-based. The note with it: Homo sapiens, NCI-H358, 48 h, mean from 3 independent experiments. How it is done:
as §1, §2, §3

The next series deals with T2, NRAS G12V (Homo sapiens, UniProt P01111, G12V).
T2 construct: expressed in transfected cells; host or cells: HeLa
T2 sequence (P01111 1-186 G12V limits assumed): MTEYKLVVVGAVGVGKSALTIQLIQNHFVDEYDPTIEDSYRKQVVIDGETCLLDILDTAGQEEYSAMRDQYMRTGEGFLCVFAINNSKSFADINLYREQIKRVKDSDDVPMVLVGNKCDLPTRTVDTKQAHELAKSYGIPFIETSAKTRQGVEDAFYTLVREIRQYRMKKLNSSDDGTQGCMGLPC
The series is described as follows: NanoBiT assay for RAS GTP-loading (LgBit-NRAS G12V / SmBit-CRAF-RBD) in HeLa cells. The format is cell-based. How it is done:
as §4, §5, §6

A short description of another series: iv (intravenous) PK. The format is in vivo. The note with it: for AUCinf(h*nM) Free / C average (nM) free / Cmax (nM), Free / AUC(0-inf) / Cmax / half-life: 2 mg/kg; for AUCinf(h*nM) Free / C average (nM) free / Cmax (nM), Free / half-life: i.v.; for Unbound clearance: Table 4, other values of the table equal the 2 mg/kg i.v. data; for AUC(0-inf) / Cmax / half-life: in vivo, iv; for half-life: read-out: T½ (converted).
Excerpt: as §7

Series [1] can be described thus: Unbound fraction in human plasma (equilibrium dialysis). In kind it is in vitro ADME. As to conditions: pH 7.4, dialysis 4 hours at 37 °C.
Excerpt: as §7
HT-Dialysis plates (Model HTD 96 b, Cat #1006) and the dialysis membrane (molecular weight cut off 12-14 KDa, Cat #1101) were purchased from HT Dialysis LLC (Gales Ferry, CT).
Dialysis Buffer (100 mM sodium phosphate and 150 mM NaCl, pH 7.4±0.1)
Stop Solution (Acetonitrile containing tolbutamide at 200 ng/mL, labetalol at 200 ng/mL)
On the day of experiment, the plasma was thawed under running cold tap water and centrifuged at 3220×g for 5 min to remove any clots. The pH value was checked and recorded. […]
The dialysis membrane was pretreated according to the manufacturer's instructions: the dialysis membrane strips were soaked in ultra-pure water at room temperature for approximately 1 hr. Afterwards, each membrane strip that contains 2 membranes was separated and soaked in ethanol:water (20:80 v:v) for approximately 20 min, after which it was ready for use or was stored in the solution at 2-8° C. for up to 1 month. […]
The % Unbound, % Bound and % Recovery were calculated using the following equations:
[formula] […] [formula] • F=Free compound concentration as determined by the calculated concentration on the buffer side of the membrane • T=Total compound concentration as determined by the calculated concentration on the matrix side of the membrane • T0=Total compound concentration as determined by the calculated concentration in matrix before dialysis

The next series concerns HCT-116. The series is described as follows: MTT assay for cell viability, HCT-116. The format is cell-based. As to conditions: Homo sapiens, 48 h, mean from 3 independent experiments. How it is done: as §1, §2, §3
In the next series the target is T3, KRAS G12V (Homo sapiens, UniProt P01116, G12V).
T3 construct: expressed in transfected cells; host or cells: HeLa
T3 sequence (P01116 1-186 isoform P01116-2 G12V limits assumed): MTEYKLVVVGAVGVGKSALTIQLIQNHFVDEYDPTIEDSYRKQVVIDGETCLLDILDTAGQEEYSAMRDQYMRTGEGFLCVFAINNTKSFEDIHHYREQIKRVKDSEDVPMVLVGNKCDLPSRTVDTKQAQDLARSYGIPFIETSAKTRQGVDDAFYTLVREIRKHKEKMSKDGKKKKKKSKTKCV
The series is described as follows: NanoBiT assay for RAS GTP-loading (LgBit-KRAS G12V / SmBit-CRAF-RBD) in HeLa cells. The format is cell-based. The protocol:
as §4, §5, §6

Another series deals with sNF96.2. The series is described as follows: MTT assay for cell viability, sNF96.2. In kind it is cell-based. The note with it: 48 h, mean from 3 independent experiments. The protocol:
as §1, §2, §3

A further series relates to ASPC1. The series is described as follows: MTT assay for cell viability, ASPC1. In kind it is cell-based. The note with it: Homo sapiens, 48 h, mean from 3 independent experiments. The protocol: as §1, §2, §3
The mark [2] stands for this setting: IC50 (nM, KRAS G12V), as listed in the PK tables 1-4, assay not named.

Each structure is given as a SMILES string. Read-outs that look alike come from different tables or passages of the source.

T1 sequence (P01112 1-186 G12V limits assumed): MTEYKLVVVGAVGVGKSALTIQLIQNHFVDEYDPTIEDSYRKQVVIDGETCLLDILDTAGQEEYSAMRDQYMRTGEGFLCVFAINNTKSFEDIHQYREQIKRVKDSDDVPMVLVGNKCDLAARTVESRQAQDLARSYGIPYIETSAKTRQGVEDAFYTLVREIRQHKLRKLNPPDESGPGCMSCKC

With `COc1cc(OC)c2c(c1)O[C@@]1(c3ccc(C#N)cc3)[C@H](c3cccc(F)c3)C[C@@H](O)[C@@]21O` (single isomer, unassigned) [Compound 1], the IC50 in the series with T24 is 13.2 nM; in the series on HT-1080, 5.39 nM; on HRAS G12V it was 13.6 nM; with H358 it was 15.6 nM; against NRAS G12V, 20.2 nM; with HCT-116, 8.99 nM. Besides, the IC50 against KRAS G12V (IC50 (nM) KRAS G12V, NanoBiT, HeLa cells, 2 h in serum-free DMEM) came to 16.5 nM; on KRAS G12V (setting [2]), 8.5 nM; in the series on sNF96.2 it was 3.69 nM; in the series with ASPC1, 11.9 nM. For the same molecule, the “AUCinf(h*nM) Free” value was found to be 378.6 nM·h in the series “oral PK” (50 mg/kg) and 19.8 nM·h in the series “iv (intravenous) PK”. For the same molecule, the “Cmax (nM), Free” value in the series “oral PK” (50 mg/kg) was 105.3 nM; in “iv (intravenous) PK”, 30.4 nM. Moreover, the area under the curve AUC(0-inf) in “oral PK” (50 mg/kg) is 14.6 µM·h; in the series “iv (intravenous) PK”, 0.8 µM·h. Besides, the figures for the maximum concentration (Cmax) in the series “oral PK” (50 mg/kg) and in “iv (intravenous) PK” were 4100 nM and 1200 nM, respectively. The average free concentration at 24 h in the series “oral PK” (50 mg/kg) was 15.8 nM. The half-life was 3.5 h in the series “oral PK” (50 mg/kg) and 0.9 h in “iv (intravenous) PK”. Also, the “C average (nM) free” value in “iv (intravenous) PK” is on record as 0.8 nM. In addition, the “Unbound clearance” value in “iv (intravenous) PK” is 221 L/h/kg. Moreover, the fraction unbound at 4 h, 2 µM in series [1] is 0.026.

Consider `COc1cc(OC)c2c(c1)O[C@@]1(c3ccc(C#N)cc3)[C@H](c3ccccc3)C[C@@H](O)[C@@]21O` (single isomer, unassigned) [Compound 2], for which, in “oral PK” (10 mg/kg), the “AUCinf(h*nM) Free” value is 26.6 nM·h; the “Cmax (nM), Free” value is 21.4 nM; the AUC(0-inf) stood at 1.1 µM·h; the maximum concentration (Cmax) stood at 900 nM. In “oral PK” (10 mg/kg), the average free concentration at 24 h worked out at 1.1 nM and the half-life is 1.3 h. Moreover, in the series “iv (intravenous) PK”, the “AUCinf(h*nM) Free” value turned out to be 51.8 nM·h; the “C average (nM) free” value turned out to be 2.2 nM; the “Cmax (nM), Free” value is 43.7 nM; the “Unbound clearance” value was 94.854 L/h/kg. In the series “iv (intravenous) PK”, the total exposure AUC(0-inf) was found to be 2.1 µM·h, the peak level (Cmax) was 1700 nM and the half-life is 4 h. In series [1], the free fraction (fraction unbound) at 4 h, 2 µM was 0.025. Besides, the IC50 against KRAS G12V (setting [2]) stood at 5.4 nM.

For the molecule `COc1cc(OC)c2c(c1)O[C@@]1(c3ccc(Cl)cc3)[C@H](c3ccccc3)C[C@@H](O)[C@@]21O` [Compound C-1, (1R,3S,3aR,8bS)-3a-(4-chlorophenyl)-6,8-dimethoxy-3-phenyl-1,2,3,3a-tetrahydro-8bH-cyclopenta[b]benzofuran-1,8b-diol, reference compound], the IC50 in the series with T24 came out at 28.5 nM; in the series on HT-1080, 18 nM; at HRAS G12V (NanoBiT, HeLa cells, 2 h in serum-free DMEM, read-out: IC50 (nM) HRAS G12V), 53.5 nM; in the series with H358, 40 nM; at NRAS G12V (NanoBiT, HeLa cells, 2 h in serum-free DMEM, read-out: IC50 (nM) NRAS G12V) it was 61.4 nM; with HCT-116 it was 21.9 nM. Also, the half-maximal inhibitory concentration (IC50) was 56.6 nM at KRAS G12V (NanoBiT, HeLa cells, 2 h in serum-free DMEM, read-out: IC50 (nM) KRAS G12V); 29 nM on KRAS G12V (as listed in the PK tables 1-4, assay not named, read-out: IC50 (nM, KRAS G12V)); 7.22 nM with sNF96.2; 26.6 nM in the series with ASPC1. Also, the “AUCinf(h*nM) Free” value was found to be 4.9 nM·h in “oral PK” (10 mg/kg), 109.8 nM·h in the series “oral PK” (50 mg/kg) and 7.9 nM·h in the series “iv (intravenous) PK”. The “Cmax (nM), Free” value in the series “oral PK” (10 mg/kg) is recorded as 2.3 nM; in the series “oral PK” (50 mg/kg), 34.3 nM; in “iv (intravenous) PK” it was 14.5 nM. Further, the results for the AUC(0-inf) in the series “oral PK” (10 mg/kg), in “oral PK” (50 mg/kg) and in the series “iv (intravenous) PK” were 0.6 µM·h, 12.6 µM·h and 0.9 µM·h, respectively. The values for the Cmax in “oral PK” (10 mg/kg), in the series “oral PK” (50 mg/kg) and in “iv (intravenous) PK” were 300 nM, 3900 nM and 1700 nM, respectively. The values for the average free concentration at 24 h in “oral PK” (10 mg/kg) and in the series “oral PK” (50 mg/kg) were 0.2 nM and 4.6 nM, respectively. Besides, the results for the half-life in the series “oral PK” (10 mg/kg), in the series “oral PK” (50 mg/kg) and in “iv (intravenous) PK” were 1.7 h, 2.7 h and 1.3 h, respectively. In addition, the “C average (nM) free” value in the series “iv (intravenous) PK” is on record as 0.3 nM. Moreover, the “Unbound clearance” value in “iv (intravenous) PK” worked out at 581.38 L/h/kg. The fraction unbound at 4 h, 2 µM in series [1] was 0.009.

The values above are taken from patent US20260216121A1, “3AH-CYCLOPENTA[B]BENZOFURAN-3A-YL AS RAS INHIBITORS” (SJP BIOTEC GMBH, priority 2023, published 2026).
